Data from ChEMBL document CHEMBL4390652, “Design, biological evaluation and X-ray crystallography of nanomolar multifunctional ligands targeting simultaneously acetylcholinesterase and glycogen synthase kinase-3” (Eur J Med Chem, 2019).

How the values were obtained:
[1] = tested on: NCI-H727; experiment: Cytotoxicity against human NCI-H727 cells assessed as growth inhibition incubated for 48 hrs by Hoechst 33342 staining based assay; assay type: cell-based; details: NCI-H727, 48 h
[2] = molecular target: Activin receptor type-1B (Homo sapiens) (UniProt P36896); experiment: Binding affinity to wild-type human ACVR1B (S187 to I505 residues) expressed in bacterial expression system assessed as residual binding level at 10 uM by Kinomescan method relative to control
Chain of Activin receptor type-1B (Homo sapiens) (P36896 whole entry, the tested form may be a part): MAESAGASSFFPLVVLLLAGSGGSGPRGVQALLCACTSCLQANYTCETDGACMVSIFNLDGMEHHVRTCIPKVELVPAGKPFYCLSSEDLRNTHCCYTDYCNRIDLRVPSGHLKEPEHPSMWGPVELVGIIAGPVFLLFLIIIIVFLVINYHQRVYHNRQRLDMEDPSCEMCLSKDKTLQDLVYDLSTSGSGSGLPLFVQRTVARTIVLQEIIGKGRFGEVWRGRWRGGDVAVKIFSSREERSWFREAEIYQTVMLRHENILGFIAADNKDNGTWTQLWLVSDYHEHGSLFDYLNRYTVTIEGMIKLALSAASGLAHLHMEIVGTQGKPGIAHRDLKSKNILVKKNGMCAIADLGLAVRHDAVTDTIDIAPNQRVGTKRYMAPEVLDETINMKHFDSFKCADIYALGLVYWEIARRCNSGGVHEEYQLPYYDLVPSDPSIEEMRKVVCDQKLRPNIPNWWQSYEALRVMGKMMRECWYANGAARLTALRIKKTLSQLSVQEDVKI

[3] = molecular target: Ankyrin repeat and protein kinase domain-containing protein 1 (Homo sapiens) (UniProt Q8NFD2); experiment: Binding affinity to wild-type human partial length ANKK1 (M1 to A305 residues) expressed in mammalian expression system assessed as residual binding level at 10 uM by Kinomescan method relative to control
[4] = molecular target: Serine/threonine-protein kinase B-raf (Homo sapiens) (UniProt P15056); experiment: Binding affinity to wild-type human partial length BRAF (S429 to E741 residues) expressed in mammalian expression system assessed as residual binding level at 10 uM by Kinomescan method relative to control
[5] = molecular target: Dual specificity protein kinase CLK1 (Homo sapiens) (UniProt P49759); experiment: Binding affinity to wild-type human full length CLK1 (M1 to I484 residues) expressed in bacterial expression system assessed as residual binding level at 10 uM by Kinomescan method relative to control
[6] = molecular target: Serine/threonine-protein kinase DCLK2 (Homo sapiens) (UniProt Q8N568); experiment: Binding affinity to wild-type human partial length DCAMKL2 (K273 to V664 residues) expressed in bacterial expression system assessed as residual binding level at 10 uM by Kinomescan method relative to control
Chain of Serine/threonine-protein kinase DCLK2 (Homo sapiens) (Q8N568 whole entry, the tested form may be a part): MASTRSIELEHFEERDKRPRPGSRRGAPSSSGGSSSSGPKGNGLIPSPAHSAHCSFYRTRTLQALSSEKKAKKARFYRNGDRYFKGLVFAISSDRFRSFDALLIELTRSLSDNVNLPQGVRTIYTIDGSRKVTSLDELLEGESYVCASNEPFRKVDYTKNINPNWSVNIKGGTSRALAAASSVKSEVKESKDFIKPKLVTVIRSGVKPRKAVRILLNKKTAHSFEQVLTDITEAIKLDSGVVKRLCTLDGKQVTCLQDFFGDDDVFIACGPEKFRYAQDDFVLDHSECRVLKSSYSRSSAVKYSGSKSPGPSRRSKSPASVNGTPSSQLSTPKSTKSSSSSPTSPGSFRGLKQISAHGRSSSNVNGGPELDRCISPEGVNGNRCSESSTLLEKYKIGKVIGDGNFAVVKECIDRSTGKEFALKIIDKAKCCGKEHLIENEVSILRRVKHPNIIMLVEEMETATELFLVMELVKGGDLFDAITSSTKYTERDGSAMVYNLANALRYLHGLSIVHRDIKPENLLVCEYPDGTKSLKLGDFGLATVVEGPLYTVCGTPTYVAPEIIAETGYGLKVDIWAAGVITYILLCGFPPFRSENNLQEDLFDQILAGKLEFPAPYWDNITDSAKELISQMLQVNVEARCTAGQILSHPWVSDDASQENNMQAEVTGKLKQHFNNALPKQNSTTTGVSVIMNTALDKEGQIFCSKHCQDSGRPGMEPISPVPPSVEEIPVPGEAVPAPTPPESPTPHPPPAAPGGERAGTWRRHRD

[7] = molecular target: Ephrin type-A receptor 2 (Homo sapiens) (UniProt P29317); experiment: Binding affinity to wild-type human partial length EPHA2 (T593 to V891 residues) expressed in bacterial expression system assessed as residual binding level at 10 uM by Kinomescan method relative to control
[8] = molecular target: Mitogen-activated protein kinase 7 (Homo sapiens) (UniProt Q13164); experiment: Binding affinity to wild-type human partial length ERK5 (M1 to A409 residues) expressed in bacterial expression system assessed as residual binding level at 10 uM by Kinomescan method relative to control
[9] = molecular target: Homeodomain-interacting protein kinase 3 (Homo sapiens) (UniProt Q9H422); experiment: Binding affinity to wild-type human partial length HIPK3 (M153 to N562 residues) expressed in mammalian expression system assessed as residual binding level at 10 uM by Kinomescan method relative to control
Chain of Homeodomain-interacting protein kinase 3 (Homo sapiens) (Q9H422 whole entry, looked up, the tested form may be a part): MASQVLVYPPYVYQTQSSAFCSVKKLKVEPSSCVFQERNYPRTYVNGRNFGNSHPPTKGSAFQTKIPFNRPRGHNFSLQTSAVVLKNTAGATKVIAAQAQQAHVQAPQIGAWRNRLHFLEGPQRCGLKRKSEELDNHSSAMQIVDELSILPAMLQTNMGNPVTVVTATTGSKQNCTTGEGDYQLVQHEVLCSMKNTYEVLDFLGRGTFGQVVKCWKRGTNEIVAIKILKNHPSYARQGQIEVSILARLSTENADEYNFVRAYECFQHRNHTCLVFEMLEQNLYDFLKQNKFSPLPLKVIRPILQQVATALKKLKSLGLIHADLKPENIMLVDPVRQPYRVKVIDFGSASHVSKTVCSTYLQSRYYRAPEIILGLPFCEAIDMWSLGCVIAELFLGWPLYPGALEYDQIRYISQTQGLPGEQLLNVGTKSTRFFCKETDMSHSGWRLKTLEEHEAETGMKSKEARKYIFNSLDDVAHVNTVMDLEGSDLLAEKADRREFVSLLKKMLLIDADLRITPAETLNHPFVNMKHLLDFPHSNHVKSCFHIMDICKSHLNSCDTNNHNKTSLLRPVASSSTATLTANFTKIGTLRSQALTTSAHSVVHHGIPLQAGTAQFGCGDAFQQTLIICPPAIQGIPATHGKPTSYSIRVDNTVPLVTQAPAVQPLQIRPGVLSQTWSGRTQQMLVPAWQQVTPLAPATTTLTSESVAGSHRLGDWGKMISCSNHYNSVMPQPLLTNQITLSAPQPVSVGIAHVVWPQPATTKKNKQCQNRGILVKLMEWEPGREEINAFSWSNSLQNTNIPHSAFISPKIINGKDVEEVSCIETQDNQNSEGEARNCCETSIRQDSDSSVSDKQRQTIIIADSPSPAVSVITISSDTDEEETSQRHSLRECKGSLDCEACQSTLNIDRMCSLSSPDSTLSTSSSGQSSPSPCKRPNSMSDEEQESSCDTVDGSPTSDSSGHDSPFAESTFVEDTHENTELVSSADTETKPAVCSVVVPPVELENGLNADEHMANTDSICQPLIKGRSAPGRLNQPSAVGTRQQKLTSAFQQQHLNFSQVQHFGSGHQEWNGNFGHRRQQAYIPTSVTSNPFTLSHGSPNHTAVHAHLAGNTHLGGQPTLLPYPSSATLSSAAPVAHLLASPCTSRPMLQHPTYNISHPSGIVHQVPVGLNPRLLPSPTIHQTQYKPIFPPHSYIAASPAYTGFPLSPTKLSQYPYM

[10] = molecular target: Tyrosine-protein kinase JAK3 (Homo sapiens) (UniProt P52333); experiment: Binding affinity to wild-type human partial length JAK3 JH1 catalytic domain (I781 to S1124 residues) expressed in mammalian expression system assessed as residual binding level at 10 uM by Kinomescan method relative to control
[11] = molecular target: MAP kinase-activated protein kinase 5 (Homo sapiens) (UniProt Q8IW41); experiment: Binding affinity to wild-type human partial length MAPKAPK5 (M1 to D322 residues) expressed in mammalian expression system assessed as residual binding level at 10 uM by Kinomescan method relative to control
[12] = molecular target: Serine/threonine-protein kinase 38-like (Homo sapiens) (UniProt Q9Y2H1); experiment: Binding affinity to wild-type human partial length NDR2 (N34 to E447 residues) expressed in bacterial expression system assessed as residual binding level at 10 uM by Kinomescan method relative to control
Chain of Serine/threonine-protein kinase 38-like (Homo sapiens) (Q9Y2H1 2-464 limits assumed): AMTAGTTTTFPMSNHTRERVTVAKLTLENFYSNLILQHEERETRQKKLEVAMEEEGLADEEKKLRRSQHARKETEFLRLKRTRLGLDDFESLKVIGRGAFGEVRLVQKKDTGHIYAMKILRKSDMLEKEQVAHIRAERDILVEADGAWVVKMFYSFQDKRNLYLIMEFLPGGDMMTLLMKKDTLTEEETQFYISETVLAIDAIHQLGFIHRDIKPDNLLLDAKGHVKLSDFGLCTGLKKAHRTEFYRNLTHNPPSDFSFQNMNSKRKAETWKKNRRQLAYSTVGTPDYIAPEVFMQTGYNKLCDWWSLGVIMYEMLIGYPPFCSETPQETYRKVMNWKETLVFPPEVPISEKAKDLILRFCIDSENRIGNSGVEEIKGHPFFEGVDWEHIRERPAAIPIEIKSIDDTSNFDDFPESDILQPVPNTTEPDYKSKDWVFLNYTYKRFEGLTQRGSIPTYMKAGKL

[13] = molecular target: Serine/threonine-protein kinase Nek7 (Homo sapiens) (UniProt Q8TDX7); experiment: Binding affinity to wild-type human full length NEK7 (M1 to S302 residues) expressed in bacterial expression system assessed as residual binding level at 10 uM by Kinomescan method relative to control
[14] = molecular target: Mitogen-activated protein kinase 13 (Homo sapiens) (UniProt O15264); experiment: Binding affinity to wild-type human full length p38-delta (M1 to L365 residues) expressed in bacterial expression system assessed as residual binding level at 10 uM by Kinomescan method relative to control
[15] = molecular target: Serine/threonine-protein kinase PAK 6 (Homo sapiens) (UniProt Q9NQU5); experiment: Binding affinity to wild-type human partial length PAK6 (N298 to C681 residues) expressed in bacterial expression system assessed as residual binding level at 10 uM by Kinomescan method relative to control
[16] = molecular target: Phosphatidylinositol 4,5-bisphosphate 3-kinase catalytic subunit beta isoform (Homo sapiens) (UniProt P42338); experiment: Binding affinity to wild-type human partial length PIK3CB (P118 to S1070 residues) expressed in mammalian expression system assessed as residual binding level at 10 uM by Kinomescan method relative to control
[17] = molecular target: cAMP-dependent protein kinase catalytic subunit beta (Homo sapiens) (UniProt P22694); experiment: Binding affinity to wild-type human full length PKAC-beta (M1 to F351 residues) expressed in bacterial expression system assessed as residual binding level at 10 uM by Kinomescan method relative to control
[18] = tested on: Proto-oncogene tyrosine-protein kinase receptor Ret (Homo sapiens), P07949 [V804M]; experiment: Binding affinity to human partial length RET V804M mutant (E713 to D1014 residues) expressed in bacterial expression system assessed as residual binding level at 10 uM by Kinomescan method relative to control
Chain of Proto-oncogene tyrosine-protein kinase receptor Ret (Homo sapiens), P07949 [V804M] (P07949 whole entry V804M, the tested form may be a part): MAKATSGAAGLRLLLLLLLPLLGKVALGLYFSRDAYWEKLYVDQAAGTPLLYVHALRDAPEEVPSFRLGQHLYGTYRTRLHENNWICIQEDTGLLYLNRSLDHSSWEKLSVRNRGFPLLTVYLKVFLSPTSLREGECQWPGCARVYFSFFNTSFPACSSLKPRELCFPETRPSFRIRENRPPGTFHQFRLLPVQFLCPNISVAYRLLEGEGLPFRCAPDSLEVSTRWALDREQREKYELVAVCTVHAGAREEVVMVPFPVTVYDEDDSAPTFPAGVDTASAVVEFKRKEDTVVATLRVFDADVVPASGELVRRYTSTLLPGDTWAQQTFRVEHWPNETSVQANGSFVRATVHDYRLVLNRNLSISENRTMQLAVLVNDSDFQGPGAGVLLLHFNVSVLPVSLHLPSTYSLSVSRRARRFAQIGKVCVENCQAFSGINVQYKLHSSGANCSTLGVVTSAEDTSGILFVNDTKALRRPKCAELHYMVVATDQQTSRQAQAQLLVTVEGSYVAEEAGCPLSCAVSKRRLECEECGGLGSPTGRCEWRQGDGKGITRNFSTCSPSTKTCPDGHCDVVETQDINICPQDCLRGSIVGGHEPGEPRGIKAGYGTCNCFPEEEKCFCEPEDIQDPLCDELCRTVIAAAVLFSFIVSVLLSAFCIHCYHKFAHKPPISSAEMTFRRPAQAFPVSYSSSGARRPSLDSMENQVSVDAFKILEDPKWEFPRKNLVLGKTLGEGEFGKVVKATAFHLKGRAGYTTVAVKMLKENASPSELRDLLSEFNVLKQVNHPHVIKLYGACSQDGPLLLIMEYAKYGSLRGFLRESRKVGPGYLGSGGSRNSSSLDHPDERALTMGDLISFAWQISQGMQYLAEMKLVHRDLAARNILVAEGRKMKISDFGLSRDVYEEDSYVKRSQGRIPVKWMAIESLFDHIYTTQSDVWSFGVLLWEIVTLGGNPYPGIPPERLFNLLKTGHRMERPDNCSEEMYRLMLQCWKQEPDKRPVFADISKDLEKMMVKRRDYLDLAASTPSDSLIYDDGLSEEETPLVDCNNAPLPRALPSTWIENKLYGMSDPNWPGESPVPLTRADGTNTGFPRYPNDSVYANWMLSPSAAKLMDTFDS

[19] = molecular target: STE20/SPS1-related proline-alanine-rich protein kinase (Homo sapiens) (UniProt Q9UEW8); experiment: Binding affinity to wild-type human partial length STK39 (P43 to I357 residues) expressed in mammalian expression system assessed as residual binding level at 10 uM by Kinomescan method relative to control
[20] = molecular target: Serine/threonine-protein kinase TAO1 (Homo sapiens) (UniProt Q7L7X3); experiment: Binding affinity to wild-type human partial length TAOK1 (M1 to A320 residues) expressed in mammalian expression system assessed as residual binding level at 10 uM by Kinomescan method relative to control
[21] = molecular target: BDNF/NT-3 growth factors receptor (Homo sapiens) (UniProt Q16620); experiment: Binding affinity to wild-type human partial length TRKB (Q547 to G838 residues) expressed in mammalian expression system assessed as residual binding level at 10 uM by Kinomescan method relative to control
Chain of BDNF/NT-3 growth factors receptor (Homo sapiens) (Q16620 32-822 limits assumed): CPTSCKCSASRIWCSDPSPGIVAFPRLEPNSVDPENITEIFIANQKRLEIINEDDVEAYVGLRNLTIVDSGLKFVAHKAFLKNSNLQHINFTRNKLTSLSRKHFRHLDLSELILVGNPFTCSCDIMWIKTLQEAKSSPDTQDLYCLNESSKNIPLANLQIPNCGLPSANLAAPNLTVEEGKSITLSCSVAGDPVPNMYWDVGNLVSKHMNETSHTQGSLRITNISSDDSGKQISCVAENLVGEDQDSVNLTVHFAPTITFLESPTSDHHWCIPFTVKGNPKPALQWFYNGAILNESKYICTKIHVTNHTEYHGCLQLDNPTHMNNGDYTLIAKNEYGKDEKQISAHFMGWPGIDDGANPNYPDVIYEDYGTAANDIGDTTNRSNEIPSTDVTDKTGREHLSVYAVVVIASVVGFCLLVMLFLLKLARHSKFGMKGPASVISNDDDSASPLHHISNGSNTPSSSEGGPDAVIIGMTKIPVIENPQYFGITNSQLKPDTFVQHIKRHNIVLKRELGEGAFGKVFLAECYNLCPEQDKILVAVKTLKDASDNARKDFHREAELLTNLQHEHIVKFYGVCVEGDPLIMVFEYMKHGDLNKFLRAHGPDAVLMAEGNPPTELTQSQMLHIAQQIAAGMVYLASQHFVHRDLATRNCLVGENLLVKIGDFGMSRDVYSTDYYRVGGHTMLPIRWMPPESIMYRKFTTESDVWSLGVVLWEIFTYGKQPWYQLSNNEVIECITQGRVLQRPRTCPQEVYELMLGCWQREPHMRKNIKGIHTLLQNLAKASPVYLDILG

[22] = molecular target: Dual specificity protein kinase TTK (Homo sapiens) (UniProt P33981); experiment: Binding affinity to wild-type human partial length TTK (N505 to V798 residues) expressed in bacterial expression system assessed as residual binding level at 10 uM by Kinomescan method relative to control
[23] = molecular target: Serine/threonine-protein kinase WNK4 (Homo sapiens) (UniProt Q96J92); experiment: Binding affinity to wild-type human partial length WNK4 (A31 to D461 residues) expressed in mammalian expression system assessed as residual binding level at 10 uM by Kinomescan method relative to control
[24] = molecular target: Serine/threonine-protein kinase 32B (Homo sapiens) (UniProt Q9NY57); experiment: Binding affinity to wild-type human full length YANK2 (M1 to S414 residues) expressed in bacterial expression system assessed as residual binding level at 10 uM by Kinomescan method relative to control

With `O=C(Nc1cc(-c2cn(CCNc3c4c(nc5ccccc35)CCCC4)nn2)ccn1)Nc1cccc2c1C1CCCCN1C2=O` (racemic) the IC50 [1] was 2000 nM, the Activity [2] was 67% and the Activity [3] was 93%. The Activity [4] was 51%, the Activity [5] was 4.5% and the Activity [6] was 90%. For the same compound, the Activity [7] was 91%, the Activity [8] was 57% and the Activity [9] was 99%. It also gave an Activity [10] of 0.28%, an Activity [11] of 42% and an Activity [12] of 99%. For the same compound, the Activity [13] was 27%, the Activity [14] was 73% and the Activity [15] was 66%. It also gave an Activity [16] of 53%, an Activity [17] of 99% and an Activity [18] of 13%. It also gave an Activity [19] of 100%, an Activity [20] of 2.6% and an Activity [21] of 17%. The Activity [22] was 9.9%, the Activity [23] was 100% and the Activity [24] was 100%.
